Data from patent publication US8735414B2 (priority 2009, dated 2014).

Experiments:
[1] = test system: bicistronic HCV replicon (replicon RNA, GenBank Accession No. AJ242654); experiment: HCV Replicon Assay; assay type: cell-based; settings: Hepatitis C virus, 72 h, read-out: Replicon IC50

## COc1ccc2c(C#N)c(-c3ccc(S(=O)(=O)NC(CF)CF)cn3)n(C3CCC3)c2c1 [compound 229, 6-(3-cyano-1-cyclobutyl-6-methoxy-1H-indol-2-yl)-N-(1,3-difluoropropan-2-yl)pyridine-3-sulfonamide]
[1]
  IC50: < 500 nM
other
  melting point: 174 to 177 °C

## Cc1cc2c(cc1F)c(C#N)c(-c1ccc(S(=O)(=O)N[C@@H](C)C(F)(F)F)cn1)n2-c1c[nH]nc1C [compound 1030, 6-[3-cyano-5-fluoro-6-methyl-1-(3-methyl-1H-pyrazol-4-yl)-1H-indol-2-yl]-N-[(2S)-1,1,1-trifluoropropan-2-yl]pyridine-3-sulfonamide]
[1]
  IC50: 500 to 2000 nM
other
  melting point: 238.8 to 244 °C

## Cc1ccc2c(c1)c(C#N)c(-c1ccc(S(=O)(=O)N[C@@H](C)C(F)(F)F)cn1)n2-c1ncccc1F [compound 844, 6-[3-cyano-1-(3-fluoropyridin-2-yl)-5-methyl-1H-indol-2-yl]-N-[(2S)-1,1,1-trifluoropropan-2-yl]pyridine-3-sulfonamide]
[1]
  IC50: < 500 nM
other
  melting point: 216 to 220 °C

## CCc1cc2c(cc1F)c(C#N)c(-c1ccc(S(=O)(=O)N[C@@H](C)C(F)(F)F)c(C)n1)n2-c1ccccn1 [compound 887, 6-[3-cyano-6-ethyl-5-fluoro-1-(pyridin-2-yl)-1H-indol-2-yl]-2-methyl-N-[(2S)-1,1,1-trifluoropropan-2-yl]pyridine-3-sulfonamide]
[1]
  IC50: < 500 nM
other
  melting point: 219 to 224 °C

## CC(C)(C)NS(=O)(=O)c1ccc(-c2c(C#N)c3ccc(OC(F)(F)F)cc3n2C2CCCC2)nc1 [compound 18, N-tert-butyl-6-[3-cyano-1-cyclopentyl-6-(trifluoromethoxy)-1H-indol-2-yl]pyridine-3-sulfonamide]
[1]
  IC50: 500 to 2000 nM
other
  melting point: 182 to 184 °C

## N#Cc1c(-c2ccc(S(=O)(=O)NC(CF)CF)cn2)n(C2CCCC2)c2cc(OC(F)F)c(F)cc12 [compound 573, 6-[3-cyano-1-cyclopentyl-6-(difluoromethoxy)-5-fluoro-1H-indol-2-yl]-N-(1,3-difluoropropan-2-yl)pyridine-3-sulfonamide]
[1]
  IC50: < 500 nM
other
  melting point: 190 to 194 °C

## CC(C)c1ccc2c(C#N)c(-c3ncc(S(=O)(=O)NC(CF)CF)cn3)n(C3CCC3)c2c1 [compound 186, 2-[3-cyano-1-cyclobutyl-6-(propan-2-yl)-1H-indol-2-yl]-N-(1,3-difluoropropan-2-yl)pyrimidine-5-sulfonamide]
[1]
  IC50: < 500 nM
other
  melting point: 214 to 222 °C

## Cc1cc2c(cc1F)c(C(N)=O)c(-c1ccc(S(=O)(=O)NC(C)(C)C)cn1)n2C1CCC1 [compound 800, 2-[5-(tert-butylsulfamoyl)pyridin-2-yl]-1-cyclobutyl-5-fluoro-6-methyl-1H-indole-3-carboxamide]
[1]
  IC50: < 500 nM
other
  melting point: 189 to 193 °C

## COc1ccc(-n2c(-c3ncc(S(=O)(=O)NC(CF)CF)cn3)c(C#N)c3cc(F)ccc32)cc1 [compound 337, 2-[3-cyano-5-fluoro-1-(4-methoxyphenyl)-1H-indol-2-yl]-N-(1,3-difluoropropan-2-yl)pyrimidine-5-sulfonamide]
[1]
  IC50: 500 to 2000 nM
other
  melting point: 209 to 211 °C

## C[C@H](NS(=O)(=O)c1ccc(-c2c(C#N)c3cc(C(F)(F)F)ccc3n2-c2ncccn2)nc1)C(F)(F)F [compound 922, 6-[3-cyano-1-(pyrimidin-2-yl)-5-(trifluoromethyl)-1H-indol-2-yl]-N-[(2S)-1,1,1-trifluoropropan-2-yl]pyridine-3-sulfonamide]
[1]
  IC50: < 500 nM
other
  melting point: 180 to 183 °C

## Cc1cc2c(C#N)c(-c3ccc(S(=O)(=O)N[C@@H](C)C(F)(F)F)cn3)n(-c3ncc(F)cn3)c2cc1F [compound 949, 6-[3-cyano-6-fluoro-1-(5-fluoropyrimidin-2-yl)-5-methyl-1H-indol-2-yl]-N-[(2S)-1,1,1-trifluoropropan-2-yl]pyridine-3-sulfonamide]
[1]
  IC50: < 500 nM
other
  melting point: 226 to 231 °C

## CCCn1c(-c2ccc(S(=O)(=O)N[C@H](C)C(F)(F)F)cn2)c(C#N)c2cc(F)c(OC(F)F)cc21 [compound 788, 6-[3-cyano-6-(difluoromethoxy)-5-fluoro-1-propyl-1H-indol-2-yl]-N-[(2R)-1,1,1-trifluoropropan-2-yl]pyridine-3-sulfonamide]
[1]
  IC50: < 500 nM
other
  melting point: 160 to 166 °C

## Cc1ccc2c(c1)c(C#N)c(-c1ccc(S(=O)(=O)N[C@@H](C)C3CC3)cn1)n2C1CCC1 [compound 201, 6-(3-cyano-1-cyclobutyl-5-methyl-1H-indol-2-yl)-N-[(1S)-1-cyclopropylethyl]pyridine-3-sulfonamide]
[1]
  IC50: < 500 nM
other
  melting point: 173 to 178 °C

## Cc1ccc2c(c1)c(C#N)c(-c1ccc(S(=O)(=O)N[C@H](C)C(F)(F)F)cn1)n2C1CCC1 [compound 484, 6-(3-cyano-1-cyclobutyl-5-methyl-1H-indol-2-yl)-N-[(2R)-1,1,1-trifluoropropan-2-yl]pyridine-3-sulfonamide]
[1]
  IC50: < 500 nM
other
  melting point: 134 to 142 °C

## COc1ccc2c(C#N)c(-c3ccc(S(=O)(=O)N[C@H](C)C(F)(F)F)cn3)n(C3CCCC3)c2c1 [compound 431, 6-(3-cyano-1-cyclopentyl-6-methoxy-1H-indol-2-yl)-N-[(2R)-1,1,1-trifluoropropan-2-yl]pyridine-3-sulfonamide]
[1]
  IC50: < 500 nM
other
  melting point: 209 to 216 °C

## Cc1cc2c(cc1F)c(C(=O)O)c(-c1ccc(S(=O)(=O)N[C@@H](C)C(F)(F)F)cn1)n2C1CCC1 [compound 793, 1-cyclobutyl-5-fluoro-6-methyl-2-(5-{[(2S)-1,1,1-trifluoropropan-2-yl]sulfamoyl}pyridin-2-yl)-1H-indole-3-carboxylic acid]
[1]
  IC50: < 500 nM
other
  melting point: 234 to 240 °C

## N#Cc1c(-c2ccc(S(=O)(=O)NC(CF)CF)cn2)n(C2CCC2)c2cc(Cl)ccc12 [compound 37, 6-(6-chloro-3-cyano-1-cyclobutyl-1H-indol-2-yl)-N-(1,3-difluoropropan-2-yl)pyridine-3-sulfonamide]
[1]
  IC50: < 500 nM
other
  melting point: 200 to 202 °C

## CC(C)NS(=O)(=O)c1ccc(-c2c(C#N)c3cc(OC(F)F)ccc3n2C2CCCC2)nc1 [compound 21, 6-[3-cyano-1-cyclopentyl-5-(difluoromethoxy)-1H-indol-2-yl]-N-(propan-2-yl)pyridine-3-sulfonamide]
[1]
  IC50: < 500 nM
other
  melting point: 177 to 179 °C

## Cc1cc2c(cc1F)c(C#N)c(-c1ccc(S(=O)(=O)N[C@@H](C)C(F)(F)F)cn1)n2-c1nccs1 [compound 934, 6-[3-cyano-5-fluoro-6-methyl-1-(1,3-thiazol-2-yl)-1H-indol-2-yl]-N-[(2S)-1,1,1-trifluoropropan-2-yl]pyridine-3-sulfonamide]
[1]
  IC50: < 500 nM
other
  melting point: 203 to 208 °C

## Cc1ccc2c(C#N)c(-c3ccc(S(=O)(=O)NC(C)(C)C(F)(F)F)cn3)n(-c3ccccn3)c2c1 [compound 686, 6-[3-cyano-6-methyl-1-(pyridin-2-yl)-1H-indol-2-yl]-N-(1,1,1-trifluoro-2-methylpropan-2-yl)pyridine-3-sulfonamide]
[1]
  IC50: < 500 nM
other
  melting point: 208 to 209 °C
